Measurements reported in patent publication US8927717B1, “Thiochromeno[2,3-c]quinolin-12-one derivatives, preparation method and application thereof” (National Defense Medical Center, priority 2014, dated 2015).

Tests used:
Assay type in all cases: cell-based
[1] = system: LOX IMVI; conditions: LOX IMVI
[2] = system: ACHN; conditions: ACHN
[3] = system: NCI-H226; conditions: NCI-H226
[4] = system: A498; conditions: A498
[5] = system: U251; conditions: U251
[6] = system: T-47D; conditions: T-47D
[7] = system: SK-OV-3; conditions: SK-OV-3
[8] = system: SNB-19; conditions: SNB-19
[9] = system: MDA-MB-435; conditions: MDA-MB-435
[10] = system: SF-268; conditions: SF-268
[11] = system: SK-MEL-28; conditions: SK-MEL-28
[12] = system: RPMI-8226; conditions: RPMI-8226
[13] = system: RXF 393; conditions: RXF 393
[14] = system: KM12; experiment: cells; conditions: KM12
[15] = system: HL-60(TB); conditions: HL-60(TB); 10^−5 molar
[16] = system: SW-620; conditions: SW-620
[17] = system: UACC-62; conditions: UACC-62
[18] = system: NCI-H522; conditions: NCI-H522
[19] = system: MDA-MB-486; conditions: MDA-MB-486
[20] = system: NCI/ADR-RES; conditions: NCI/ADR-RES
[21] = system: HCT-116; conditions: HCT-116
[22] = system: M14; conditions: M14
[23] = system: MOLT-4; conditions: MOLT-4
[24] = system: PC-3; conditions: PC-3
[25] = system: MCF7; conditions: MCF7
[26] = system: MALME-3M; conditions: MALME-3M
[27] = system: HOP-62; conditions: HOP-62
[28] = system: NCI-H23; conditions: NCI-H23
[29] = system: TK-10; conditions: TK-10
[30] = system: SK-MEL-5; conditions: SK-MEL-5
[31] = system: OVCAR-8; conditions: OVCAR-8
[32] = system: HT29; conditions: HT29
[33] = system: SR; conditions: SR
[34] = system: K-562; conditions: K-562
[35] = system: COLO 205; conditions: COLO 205
[36] = system: 786-0; conditions: 786-0
[37] = system: 60 cancer cell lines; experiment: NCI 60-cell screen, SRB, whole panel (mean, delta, range)
[38] = system: NCI-H460; conditions: NCI-H460
[39] = system: MDA-MB-231/ATCC; conditions: MDA-MB-231/ATCC
[40] = Homo sapiens, five dose, read-out: LC50 (the source's name)

Work on `O=c1c2cc(Cl)ccc2sc2c(NCCCNCCO)nc3ccccc3c12` [Compound N19, 10-Chloro-6-((3-((2-hydroxyethyl)amino)propyl)amino)-12H-thiochromeno[2,3-c]quinolin-12-one] yielded a GI50 ([1]; Homo sapiens, five dose) of 1800 nM, a Growth percent ([1]; 10^−5 molar) of −82.79% and a TGI ([1]; five dose) of 3800 nM. The Growth percent ([2]; 10^−5 molar) was −96.96%, the TGI ([2]; five dose) was 3220 nM and the GI50 ([2]; Homo sapiens, five dose) was 1670 nM. For the same compound, the GI50 ([3]; Homo sapiens, five dose) was 1900 nM, the Growth percent ([3]; 10^−5 molar) was 86.75% and the TGI ([3]; five dose) was 4460 nM. For the same compound, the Growth percent ([4]; 10^−5 molar) was 61.88%, the TGI ([4]; five dose) was 3620 nM and the GI50 ([4]; Homo sapiens, five dose) was 1270 nM. For the same compound, the CC50 [4, 40] was 15000 nM, the GI50 ([5]; Homo sapiens, U-251, five dose) was 1730 nM and the Growth percent ([5]; 10^−5 molar) was −66.76%. The TGI ([5]; five dose) was 3220 nM, the GI50 ([6]; Homo sapiens, T47D, five dose) was 1500 nM and the Growth percent ([6]; 10^−5 molar) was 16.26%. It also gave a TGI ([6]; five dose) of 3430 nM, a GI50 ([7]; Homo sapiens, five dose) of 1680 nM and a CC50 [7, 40] of 6800 nM. The Growth percent ([7]; 10^−5 molar) was 76.48%, the TGI ([7]; five dose) was 3380 nM and the GI50 ([8]; Homo sapiens, five dose) was 1640 nM. It also gave a Growth percent ([8]; 10^−5 molar) of 46.07%, a TGI ([8]; five dose) of 3260 nM and a GI50 ([9]; Homo sapiens, five dose) of 1590 nM. The CC50 [9, 40] was 5620 nM, the Growth percent ([9]; 10^−5 molar) was −88.95% and the TGI ([9]; five dose) was 2990 nM. It also gave a GI50 ([10]; Homo sapiens, five dose) of 1670 nM, a Growth percent ([10]; 10^−5 molar) of 17.28% and a TGI ([10]; five dose) of 3350 nM. The GI50 ([11]; Homo sapiens, five dose) was 1890 nM, the Growth percent ([11]; 10^−5 molar) was −94.33% and the TGI ([11]; five dose) was 3560 nM. For the same compound, the GI50 ([12]; Homo sapiens, five dose) was 1840 nM, the Growth percent ([12]; 10^−5 molar) was 5.53% and the TGI ([12]; five dose) was 4210 nM. It also gave a GI50 ([13]; Homo sapiens, five dose) of 1640 nM, a Growth percent ([13]; 10^−5 molar) of 43.67% and a TGI ([13]; five dose) of 3200 nM. The GI50 ([14]; Homo sapiens, five dose) was 1670 nM, the Growth percent ([14]; 10^−5 molar) was −83.29% and the TGI ([14]; five dose) was 3310 nM. The Growth percent [15] was −37.88%, the GI50 ([16]; Homo sapiens, five dose) was 1630 nM and the Growth percent ([16]; 10^−5 molar) was −81.48%. It also gave a TGI ([16]; five dose) of 3300 nM, a GI50 ([17]; Homo sapiens, five dose) of 1810 nM and a CC50 [17, 40] of 6390 nM. It also gave a Growth percent ([17]; 10^−5 molar) of −77.63%, a TGI ([17]; five dose) of 3400 nM and a GI50 ([18]; Homo sapiens, five dose) of 1850 nM. The Growth percent ([18]; 10^−5 molar) was −59.68%, the TGI ([18]; five dose) was 3560 nM and the GI50 ([19]; 60 cell, five dose) was 1060 nM. The CC50 ([19]; 60 cell, five dose, read-out: LC50 (the source's name)) was 6200 nM, the Growth percent ([19]; 10^−5 molar) was −24.00% and the TGI ([19]; five dose) was 2560 nM. The GI50 ([20]; Homo sapiens, five dose) was 1820 nM, the Growth percent ([20]; 10^−5 molar) was 26.35% and the TGI ([20]; five dose) was 3630 nM. The Growth percent ([21]; 10^−5 molar) was −91.19%, the TGI ([21]; five dose) was 3050 nM and the GI50 ([21]; Homo sapiens, five dose) was 1600 nM. It also gave a GI50 ([22]; Homo sapiens, five dose) of 1830 nM, a Growth percent ([22]; 10^−5 molar) of 6.12% and a TGI ([22]; five dose) of 3530 nM. For the same compound, the GI50 ([23]; Homo sapiens, five dose) was 1880 nM, the Growth percent ([23]; 10^−5 molar) was −47.57% and the GI50 ([24]; Homo sapiens, five dose) was 1510 nM. The CC50 [24, 40] was 5660 nM, the Growth percent ([24]; 10^−5 molar) was −26.98% and the TGI ([24]; five dose) was 2920 nM. The GI50 ([25]; Homo sapiens, five dose) was 1050 nM, the Growth percent ([25]; 10^−5 molar) was −72.49% and the TGI ([25]; five dose) was 2600 nM. It also gave a GI50 ([26]; Homo sapiens, five dose) of 2150 nM, a Growth percent ([26]; 10^−5 molar) of −34.30% and a TGI ([26]; five dose) of 4330 nM. For the same compound, the Growth percent ([27]; 10^−5 molar) was 36.97%, the TGI ([27]; five dose) was 2890 nM and the GI50 ([27]; Homo sapiens, five dose) was 1380 nM. For the same compound, the GI50 ([28]; Homo sapiens, five dose) was 1890 nM, the Growth percent ([28]; 10^−5 molar) was 54.26% and the TGI ([28]; five dose) was 3680 nM. For the same compound, the GI50 ([29]; Homo sapiens, five dose) was 2090 nM, the CC50 [29, 40] was 6690 nM and the Growth percent ([29]; 10^−5 molar) was −92.61%. For the same compound, the TGI ([29]; five dose) was 3740 nM, the GI50 ([30]; Homo sapiens, five dose) was 1600 nM and the Growth percent ([30]; 10^−5 molar) was 62.02%. The TGI ([30]; five dose) was 3000 nM, the GI50 ([31]; Homo sapiens, five dose) was 1750 nM and the Growth percent ([31]; 10^−5 molar) was 9.89%. It also gave a TGI ([31]; five dose) of 3320 nM, a Growth percent ([32]; 10^−5 molar) of −83.53% and a TGI ([32]; five dose) of 4000 nM. For the same compound, the GI50 ([32]; Homo sapiens, HT-29, five dose) was 2050 nM, the GI50 ([33]; Homo sapiens, five dose) was 1980 nM and the Growth percent ([33]; 10^−5 molar) was −51.40%. It also gave a TGI ([33]; five dose) of 4550 nM, a GI50 ([34]; Homo sapiens, K562, five dose) of 1730 nM and a CC50 ([34]; Homo sapiens, K562, five dose, read-out: LC50 (the source's name)) of over 100000 nM. The Growth percent ([34]; 10^−5 molar) was −66.94%, the Growth percent ([35]; 10^−5 molar) was −87.17% and the TGI ([35]; five dose) was 3370 nM. The GI50 ([35]; Homo sapiens, five dose) was 1630 nM, the Growth percent ([36]; 10^−5 molar) was −17.60% and the TGI ([36]; five dose) was 3370 nM. For the same compound, the GI50 ([36]; Homo sapiens, five dose) was 1720 nM, the GI50 ([37]; 60 cell, mean over panel, five dose) was 1660 nM and the CC50 ([37]; 60 cell, mean over panel, five dose, read-out: LC50, Mean) was 9550 nM. For the same compound, the “Growth percent, Delta” value ([37]; delta over panel, 10^−5 molar) was 75.63%, the “Growth percent, Mean” value ([37]; mean over panel, 10^−5 molar) was −21.33% and the “TGI, Mean” value ([37]; mean over panel, five dose) was 3390 nM. The “Growth percent, Range” value ([37]; range over panel, 10^−5 molar) was 195.44%, the GI50 ([38]; Homo sapiens, five dose) was 1660 nM and the Growth percent ([38]; 10^−5 molar) was −80.98%. It also gave a TGI ([38]; five dose) of 3350 nM, a GI50 ([39]; Homo sapiens, five dose) of 1360 nM and a CC50 [39, 40] of 6020 nM. For the same compound, the Growth percent ([39]; 10^−5 molar) was −66.53% and the TGI ([39]; five dose) was 2860 nM.
